In patent US11339165B2, “Pyrazolopyrimidines having activity against the respiratory syncytial virus (RSV)” (priority 2017, dated 2022):

Tests used:
[1] = system: rgRSV224 virus; experiment: Antiviral activity: rgRSV224 (GFP) replication in HeLa cells; type: cell-based, respiratory syncytial virus (RSV); details: human respiratory syncytial virus, HeLa, 72 h, read-out: RSV HELA EC50 (μM), rgRSV224 virus (MOI=1), HeLa cells, GFP expression three days post-virus exposure
[2] = in vitro; details: human, TOX HELA CC50 (μM)

Compound | EC50 [1] [µM] | CC50 at 3 days [2] [µM]
COC(=O)N[C@@H]1CCN(c2ccc(-c3cc4nc(C(=O)N5CCc6ccccc6[C@H]5C)cc(C5CC5)n4n3)c(F)c2)C1 [Compound 9, Methyl N-[(3R)-1-[4-{7-cyclopropyl-5-[(1R)-1-methyl-1,2,3,4-tetrahydroisoquinoline-2-carbonyl]pyrazolo[1,5-a]pyrimidin-2-yl}-3-fluorophenyl)pyrrolidin-3-yl]carbamate] | 0.108 | > 100
CNC(=O)O[C@@H]1CCN(c2ccc(-c3cc4nc(C(=O)N5CCc6ccccc6[C@H]5C)cc(C5CC5)n4n3)c(F)c2)C1 [Compound 15, (3R)-1-(4-{7-Cyclopropyl-5-[(1R)-1-methyl-1,2,3,4-tetrahydroisoquinoline-2-carbonyl]-pyrazolo[1,5-a]pyrimidin-2-yl}-3-fluorophenyl)pyrrolidin-3-yl N-methylcarbamate] | 0.1 | > 100
C[C@@H]1c2ccccc2CCN1C(=O)c1cc(C2CC2)n2nc(-c3ccc(N4C[C@@H](O)[C@@H](O)C4)cc3F)cc2n1 [Compound 95, (7-cyclopropyl-2-(4-((3R,4S)-3,4-dihydroxypyrrolidin-1-yl)-2-fluorophenyl)pyrazolo[1,5-a]pyrimidin-5-yl)((R)-1-methyl-3,4-dihydroisoquinolin-2(1H)-yl)methanone] | 0.018 | 31.1
CC(=O)N[C@H]1CCN(c2ccc(-c3cc4nc(C(=O)N5CCc6ccccc6[C@H]5C)cc(C5CC5)n4n3)c(F)c2)C1 [Compound 8, N-[(3S)-1-(4-{7-Cyclopropyl-5-[(1R)-1-methyl-1,2,3,4-tetrahydroisoquinoline-2-carbonyl]pyrazolo[1,5-a]pyrimidin-2-yl}-3-fluorophenyl)pyrrolidin-3-yl]acetamide] | 0.041 | 51.5
C[C@@H]1c2ccccc2CCN1C(=O)c1cc(C2CC2)n2nc(-c3ccc(N4CC[C@H](C(=O)NC#N)C4)cc3F)cc2n1 [Compound 39, (3S)—N-Cyano-1-(4-{7-cyclopropyl-5-[(1R)-1-methyl-1,2,3,4-tetrahydroisoquinoline-2-carbonyl]pyrazolo[1,5-a]pyrimidin-2-yl}-3-fluorophenyl)pyrrolidine-3-carboxamide] | 0.291 | 53.1
COC(=O)N[C@H]1CCN(c2ccc(-c3cc4nc(C(=O)N5CCc6ccccc6[C@H]5C)cc(C5CC5)n4n3)c(F)c2)C1 [Compound 10, Methyl N-[(3S)-1-[4-{7-cyclopropyl-5-[(1R)-1-methyl-1,2,3,4-tetrahydroisoquinoline-2-carbonyl]pyrazolo[1,5-a]pyrimidin-2-yl}-3-fluorophenyl)pyrrolidin-3-yl]carbamate] | 0.07 | > 100
C[C@@H]1c2ccccc2CCN1C(=O)c1cc(C2CC2)n2nc(-c3ccc(N4CC[C@@H](OC(N)=O)C4)nc3F)cc2n1 [Compound 85, (3R)-1-(5-{7-Cyclopropyl-5-[(1R)-1-methyl-1,2,3,4-tetrahydroisoquinoline-2-carbonyl]-pyrazolo[1,5-a]pyrimidin-2-yl}-6-fluoropyridin-2-yl)pyrrolidin-3-yl carbamate] | 0.152 | > 100
C[C@@H]1c2ccccc2CCN1C(=O)c1cc(C2CC2)n2nc(-c3ccc(N4CCC(C#N)C4)cc3F)cc2n1 (stereo partly drawn) [Compound 1, 1-(4-{7-Cyclopropyl-5-[(1R)-1-methyl-1,2,3,4-tetrahydroisoquinoline-2-carbonyl]-pyrazolo[1,5-a]pyrimidin-2-yl}-3-fluorophenyl)pyrrolidine-3-carbonitrile] | 0.085 | > 100
C[C@@H]1c2ccccc2CCN1C(=O)c1cc(C2CC2)n2nc(-c3ccc(N4CC[C@H](C(N)=S)C4)cc3F)cc2n1 [Compound 101, (S)-1-(4-(7-cyclopropyl-5-((R)-1-methyl-1,2,3,4-tetrahydroisoquinoline-2-carbonyl)pyrazolo[1,5-a]pyrimidin-2-yl)-3-fluorophenyl)pyrrolidine-3-carbothioamide] | 0.058 | 45.4
C[C@@H]1c2ccccc2CCN1C(=O)c1cc(C2CC2)n2nc(-c3ccc(N4CCC(O)(CO)C4)cc3F)cc2n1 (single isomer, unassigned) [Compound 103] | 0.019 | 35.8
C[C@@H]1c2ccccc2CCN1C(=O)c1cc(-c2ccccc2)n2nc(-c3ccc(N4CC[C@H](C(N)=O)C4)cc3F)cc2n1 [Compound 56, (3S)-1-(3-Fluoro-4-{5-[(1R)-1-methyl-1,2,3,4-tetrahydroisoquinoline-2-carbonyl]-7-phenylpyrazolo[1,5-a]pyrimidin-2-yl}phenyl)pyrrolidine-3-carboxamide] | 0.032 | 58.9
CNC(=O)C1CCCN(c2ccc(-c3cc4nc(C(=O)N5CCc6ccccc6[C@H]5C)cc(C5CC5)n4n3)c(F)c2)C1 (stereo partly drawn) [Compound 73, 1-(4-{7-Cyclopropyl-5-[(1R)-1-methyl-1,2,3,4-tetrahydroisoquinoline-2-carbonyl]-pyrazolo[1,5-a]pyrimidin-2-yl}-3-fluorophenyl)-N-methylpiperidine-3-carboxamide] | 0.101 | > 100
C[C@@H]1c2ccccc2CCN1C(=O)c1cc(C2CC2)n2nc(-c3ccc(N4CC[C@@H](O)C4)cc3F)cc2n1 [Compound 13, (3R)-1-(4-{7-Cyclopropyl-5-[(1R)-1-methyl-1,2,3,4-tetrahydroisoquinoline-2-carbonyl]pyrazolo[1,5-a]pyrimidin-2-yl}-3-fluorophenyl)pyrrolidin-3-ol] | 0.058 | 80.5
C[C@@H]1c2ccccc2CCN1C(=O)c1cc(C2CC2)n2nc(-c3c(O)cc(N4CC[C@H](C(N)=O)C4)cc3F)cc2n1 [Compound 105, (S)-1-(4-(7-cyclopropyl-5-((R)-1-methyl-1,2,3,4-tetrahydroisoquinoline-2-carbonyl)pyrazolo[1,5-a]pyrimidin-2-yl)-3-fluoro-5-hydroxyphenyl)pyrrolidine-3-carboxamide] | 0.025 | 83.6
C[C@@H]1c2ccccc2CCN1C(=O)c1cc(C2CC2)n2nc(-c3ccc(N4CC[C@H](C(C)(C)C(N)=O)C4)cc3F)cc2n1 (single isomer, unassigned) [Compound 27, 2-[(3*R)-1-(4-{7-Cyclopropyl-5-[(1R)-1-methyl-1,2,3,4-tetrahydroisoquinoline-2-carbonyl]pyrazolo[1,5-a]pyrimidin-2-yl}-3-fluorophenyl)pyrrolidin-3-yl]-2-methylpropanamide] | 0.089 | 34.4
C[C@@H]1c2ccsc2CCN1C(=O)c1cc(C2CC2)n2nc(-c3ccc(N4CC[C@](C)(CC(N)=O)C4)cc3F)cc2n1 (single isomer, unassigned) [Compound 25, 2-[(3*R)-1-(4-{7-Cyclopropyl-5-[(4*R)-4-methyl-4,5,6,7-tetrahydro-thieno[3,2-c]pyridine-5-carbonyl]pyrazolo[1,5-a]pyrimidin-2-yl}-3-fluorophenyl)-3-methylpyrrolidin-3-yl]acetamide] | 0.023 | 29.6
C[C@@H]1c2ccccc2CCN1C(=O)c1cc(C2CC2)n2nc(-c3ccc(N4CCC5(C4)CS(=O)(=O)C5)cc3F)cc2n1 [Compound 6] | 0.098 | > 100
